From patent publication US20240216465A1, “METHOD FOR TREATING REFRACTORY BRAIN TUMOR” (National Yang Ming Chiao Tung University, priority 2023, published 2024)
Where a SMILES comes first, the peptide text is derived from it. The star is where a group is joined. Cbz = O=C(OCc1ccccc1)*

Tests used:
Slug = assay: Western blot of Slug in GBM cells; assay type: cell-based, human; conditions: MG132 10 μM 30 mins pretreatment, then GMI 0.6 μM 3 h
Protocol: FIGS. 10A-10D show GMI induces Slug degradation in GBM cells. […] The mRNA level of Slug was measured using qPCR.
Cell extracts (30 μg) were then subjected to one-dimensional SDS-PAGE (8-12% separating gel) electrophoresis and were transferred to a PVDF membrane (0.22 μm, Millipore) by using a transfer apparatus (Bio-Rad, Richmond, CA). Membranes were blocked with 5% BSA in TBST buffer containing 0.05% Tween20. The expressions of proteins were identified by indicated antibodies. The expression of tubulin as an internal control. The indicated bands on the PVDF membrane were quantified using densitometry analysis by ImageJ software (National Institute of Mental Health, Bethesda, MD) and compared to results of the control group.

[1] = Rat weight and serum AST, ALT, BUN, creatinine in C6-bearing rats; assay type: in vivo; conditions: rat sera, TMZ 30 mg/kg ip
Protocol: FIGS. 7A-7F show GMI combined with TMZ suppressed tumorigenesis in C6-bearing rats. FIG. 7A indicates Schematic design of the in vivo post combined therapy of GMI and TMZ in C6-bearing rats. The tumor volume in rat received GMI (0.6 mg/kg) and […]. […] FIG. 7C indicates the tumor volume was measured; each bar represents the mean+SD. […] FIGS. 7E and 7F show the AST and ALT (hepatic function: shown in FIG. 7E) as well as BUN and creatinine (renal function; shown in FIG. 7F) of rat sera were analyzed.
Five days after tumor implantation surgery, rats were randomly assigned into four group (6 animals/group) to be treated with different drugs every other day for 4 times, i.e. on day 5, 7, 9, 11. • Group 1 (control): intravenous administration of saline. • Group 2 (GMI): intravenous (iv) administration of GMI (0.6 mg/Kg) • Group 3 (TMZ): intraperitoneal (ip) administration of TMZ (30 mg/Kg) • Group 4 (GMI+TMZ): combination of GMI (iv, 0.6 mg/Kg) and TMZ (ip, 30 mg/Kg)
MRI imaging acquisition was performed on day 13 and a half of the animals in each group were sacrificed on day 15 for immunohistochemistry study. After tumor volume was measured, specimens from the animals in the histology group were subjected to other histological evaluations described as follows.

Compound	GMI-induced Slug degradation (Slug)	AST/ALT ([1]; GMI 0.6 mg/kg iv)	BUN [1]
CC(C)C[C@@H](C=O)NC(=O)[C@H](CC(C)C)NC(=O)[C@H](CC(C)C)NC(=O)OCc1ccccc1 [MG132] (Cbz-Leu-Leu-Leu-aldehyde)	counteracted GMI-induced Slug degradation	–	–
Cn1nnc2c(C(N)=O)ncn2c1=O [TMZ, Temozolomide]	–	increased AST/ALT expression	slightly increased BUN expression
